According to the supplement of paper PMC10307832:

How the values were obtained:
Assay in all cases: relative viability (nuclei count vs DMSO), 5 days (fraction); higher = more cells survive
NCI-H1703 = system: NCI-H1703
Outline: (§1)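 Values are medians from duplicate plates. Each reflects relative viability, defined as the nuclei count of treated wells over that of vehicle wells. Lung cancer cell lines in 1536-well plates were pin-tool dosed one day after seeding with one drug alone or with a fixed anchor-drug dose plus five library-drug doses (not always all listed) in √10 steps, then fixed, stained and imaged at 4× after 5 days.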

NCI-H522 = system: NCI-H522
Outline: as §1

NCI-H1299 = system: NCI-H1299
Outline: as §1

NCI-H1648 = system: NCI-H1648
Outline: as §1

NCI-H1355 = system: NCI-H1355
Outline: as §1

IA-LM = system: IA-LM
Outline: as §1

NCI-H520 = system: NCI-H520
Outline: as §1

A549 = system: A549
Outline: as §1

EBC-1 = system: EBC-1
Outline: as §1

Calu-6 = system: Calu-6
Outline: as §1

LCLC-103H = system: LCLC-103H
Outline: as §1

NCI-H1623 = system: NCI-H1623
Outline: as §1

O=C(O)c1ccc(-c2c[nH]c3ncc(-c4ccccc4)cc23)cc1C1CCCC1 + O=C(c1cc(Cc2n[nH]c(=O)c3ccccc23)ccc1F)N1CCN(C(=O)C2CC2)CC1 [Olaparib] (partner 8 µM)
relative viability (NCI-H1703; first compound 0.04 µM): 0.57
relative viability (NCI-H1703; first compound 0.1265 µM): 0.468
relative viability (NCI-H1703; first compound 0.4 µM): 0.382
relative viability (NCI-H1703; first compound 1.265 µM): 0.49
relative viability (NCI-H522; first compound 0.04 µM): 0.816
relative viability (NCI-H522; first compound 0.1265 µM): 0.673
relative viability (NCI-H522; first compound 0.4 µM): 0.596
relative viability (NCI-H522; first compound 1.265 µM): 0.755
relative viability (NCI-H1299; first compound 0.04 µM): 0.964
relative viability (NCI-H1299; first compound 0.1265 µM): 1
relative viability (NCI-H1299; first compound 0.4 µM): 0.893
relative viability (NCI-H1299; first compound 1.265 µM): 0.821
relative viability (NCI-H1648; first compound 0.04 µM): 0.676
relative viability (NCI-H1648; first compound 0.1265 µM): 1.15
relative viability (NCI-H1648; first compound 0.4 µM): 0.763
relative viability (NCI-H1355; first compound 0.04 µM): 0.786
relative viability (NCI-H1355; first compound 0.1265 µM): 0.837
relative viability (NCI-H1355; first compound 0.4 µM): 0.666
relative viability (NCI-H1355; first compound 1.265 µM): 0.323
relative viability (IA-LM; first compound 0.04 µM): 0.836
relative viability (IA-LM; first compound 0.1265 µM): 0.758
relative viability (IA-LM; first compound 0.4 µM): 0.846
relative viability (IA-LM; first compound 1.265 µM): 0.719
relative viability (NCI-H520; first compound 0.04 µM): 0.337
relative viability (NCI-H520; first compound 0.1265 µM): 0.416
relative viability (NCI-H520; first compound 0.4 µM): 0.348
relative viability (NCI-H520; first compound 1.265 µM): 0.271
relative viability (A549; first compound 0.04 µM): 0.224
relative viability (A549; first compound 0.1265 µM): 0.674
relative viability (A549; first compound 0.4 µM): 0.345
relative viability (A549; first compound 1.265 µM): 0.307
relative viability (EBC-1; first compound 0.04 µM): 0.692
relative viability (EBC-1; first compound 0.1265 µM): 0.626
relative viability (EBC-1; first compound 0.4 µM): 0.618
relative viability (EBC-1; first compound 1.265 µM): 0.406
relative viability (Calu-6; first compound 0.04 µM): 0.521
relative viability (Calu-6; first compound 0.1265 µM): 0.56
relative viability (Calu-6; first compound 0.4 µM): 0.488
relative viability (Calu-6; first compound 1.265 µM): 0.395
relative viability (LCLC-103H; first compound 0.04 µM): 0.728
relative viability (LCLC-103H; first compound 0.1265 µM): 0.771
relative viability (LCLC-103H; first compound 0.4 µM): 0.758
relative viability (LCLC-103H; first compound 1.265 µM): 0.729

NC(=O)Nc1cc(-c2cccc(F)c2)sc1C(=O)N[C@H]1CCCNC1 [AZD7762] + CCNC(=O)c1noc(-c2cc(C(C)C)c(O)cc2O)c1-c1ccc(CN2CCOCC2)cc1 [Luminespib] (partner 0.01 µM)
relative viability (NCI-H522; first compound 0.01 µM): 1.14
relative viability (NCI-H522; first compound 0.03162 µM): 1.23
relative viability (NCI-H522; first compound 0.1 µM): 1.14
relative viability (NCI-H522; first compound 0.3162 µM): 1.35
relative viability (NCI-H522; first compound 1 µM): 1
relative viability (NCI-H1355; first compound 0.01 µM): 0.709
relative viability (NCI-H1355; first compound 0.03162 µM): 0.751
relative viability (NCI-H1355; first compound 0.1 µM): 0.812
relative viability (NCI-H1355; first compound 0.3162 µM): 0.717
relative viability (NCI-H1355; first compound 1 µM): 0.581
relative viability (NCI-H520; first compound 0.01 µM): 0.208
relative viability (NCI-H520; first compound 0.03162 µM): 0.191
relative viability (NCI-H520; first compound 0.1 µM): 0.238
relative viability (NCI-H520; first compound 0.3162 µM): 0.254
relative viability (NCI-H520; first compound 1 µM): 0.234
relative viability (LCLC-103H; first compound 0.01 µM): 1.06
relative viability (LCLC-103H; first compound 0.03162 µM): 0.932
relative viability (LCLC-103H; first compound 0.1 µM): 1.01
relative viability (LCLC-103H; first compound 0.3162 µM): 0.943
relative viability (LCLC-103H; first compound 1 µM): 0.953
relative viability (NCI-H1623; first compound 0.01 µM): 0.421
relative viability (NCI-H1623; first compound 0.03162 µM): 0.591
relative viability (NCI-H1623; first compound 0.1 µM): 0.602
relative viability (NCI-H1623; first compound 0.3162 µM): 0.604
relative viability (NCI-H1623; first compound 1 µM): 0.418

NC(=O)Nc1cc(-c2cccc(F)c2)sc1C(=O)N[C@H]1CCCNC1 [AZD7762] + Cc1nc(Nc2ncc(C(=O)Nc3c(C)cccc3Cl)s2)cc(N2CCN(CCO)CC2)n1 [Dasatinib] (partner 0.075 µM)
relative viability (NCI-H522; first compound 0.01 µM): 0.923
relative viability (NCI-H522; first compound 0.03162 µM): 0.919
relative viability (NCI-H522; first compound 0.1 µM): 0.76
relative viability (NCI-H522; first compound 0.3162 µM): 0.933
relative viability (NCI-H522; first compound 1 µM): 0.946
relative viability (NCI-H1355; first compound 0.01 µM): 0.668
relative viability (NCI-H1355; first compound 0.03162 µM): 0.849
relative viability (NCI-H1355; first compound 0.1 µM): 0.739
relative viability (NCI-H1355; first compound 0.3162 µM): 0.681
relative viability (NCI-H1355; first compound 1 µM): 0.506
relative viability (NCI-H520; first compound 0.01 µM): 0.212
relative viability (NCI-H520; first compound 0.03162 µM): 0.18
relative viability (NCI-H520; first compound 0.1 µM): 0.192
relative viability (NCI-H520; first compound 0.3162 µM): 0.16
relative viability (NCI-H520; first compound 1 µM): 0.189
relative viability (LCLC-103H; first compound 0.01 µM): 0.555
relative viability (LCLC-103H; first compound 0.03162 µM): 0.463
relative viability (LCLC-103H; first compound 0.1 µM): 0.422
relative viability (LCLC-103H; first compound 0.3162 µM): 0.515
relative viability (LCLC-103H; first compound 1 µM): 0.284
relative viability (NCI-H1623; first compound 0.01 µM): 0.471
relative viability (NCI-H1623; first compound 0.03162 µM): 0.558
relative viability (NCI-H1623; first compound 0.1 µM): 0.615
relative viability (NCI-H1623; first compound 0.3162 µM): 0.482
relative viability (NCI-H1623; first compound 1 µM): 0.482
